Tests used:
Jurkat cells = assay: Production of IL-2 by Jurkat T lymphoma cells; format: cell-based, human
Method: (§1) Typically, peripheral blood lymphocytes (PBL) from normal donors are incubated (2×10^6 cells/ml) in RPMI-1640 medium supplemented with 4 mM glutamine, 0.1 mM nonessential amino acids, 1 mM sodium pyruvate, 10 mM HEPES and 10% FCS and containing either Con A (5 μg/ml) or PHA (10 μg/ml) as the mitogen. AVC was added at the initiation of the culture at the dose of 12 μg/ml. The cultures were then incubated in a 5% CO2 atmosphere. Culture supernatants were collected on day 2, 3 and 4 and tested for the content (Units/ml) of IL-2 using a biological assay consisting in measuring the proliferative response of murine CTLL-2 T cells whose growth in culture is strictly dependent on the presence of IL-2 in the medium. The proliferative response (^3H-Thymidine incorporation) of CTLL-2 cells was plotted on a reference curve constructed with a standard amount of IL-2 and the experimental values calculated accordingly.
(§2) The effect on IL-2 production by AVC was not due to a direct proliferative effect on PBL in culture (Table IV) nor did it have a direct effect on IL-2 production by Jurkat or LBRM-33 T lymphoma cells (Table V).

human PBL = assay: Proliferation of human PBL; format: cell-based; set-up: unit not given here
Text: as §2

LBRM-33 Cells = assay: Production of IL-2 by LBRM-33 T lymphoma cells; format: cell-based
Method: as §1, §2

## concanavalin A [Con A]
Jurkat cells; 24 Hours
  Production of IL-2: 3,815
Jurkat cells; 48 Hours
  Production of IL-2: 10,061
Human PBL; Experiment 1, 24 Hours
  Proliferation of human PBL: 3,772
Human PBL; Experiment 1, 48 Hours
  Proliferation of human PBL: 37,839
Human PBL; Experiment 1, 72 Hours
  Proliferation of human PBL: 42,357
Human PBL; Experiment 2, 24 Hours
  Proliferation of human PBL: 182
Human PBL; Experiment 2, 48 Hours
  Proliferation of human PBL: 23,767
LBRM-33 Cells; 24 Hours
  Production of IL-2: 28,774
LBRM-33 Cells; 48 Hours
  Production of IL-2: 28,880

Source: patent US20040137085A1, “Treatment of HIV infection with humic acid” (priority 1993, published 2004)
